Data taken from patent US6630343B1, “Hepatitis C virus culture system” (priority 1999, dated 2003).
Starred links: 1 amine or outer side, 2 acyl side, 3 side chain; linkers in the order of their positions; H or OH if unused. Positions of bridges follow the written chain, without caps; N, C: chain ends. Non-standard residues stand in square brackets, D forms with d. Residues, ends and D or L forms follow the SMILES beside them. Chains are numbered I, II in the order given. Actinocin(9to1) = Cc1c2oc3c(C)ccc(C(=O)[*:1])c3nc-2c(C(=O)[*:2])c(N)c1=O; NMeV = CN[C@H](C(=O)O)C(C)C; Sar = CNCC(=O)O

Experiments:
HCV RNA = test: [3H] uridine labeling of RNA in the presence of dactinomycin: HCV-RNA replication; format: cell-based, hepatitis C virus; conditions: 4 μg/ml dactinomycin, 16 hrs, clone 9-13
Description: (§1) To confirm this assumption, cells were incubated with [^3H] uridine in the presence of dactinomycin, the radioactively labeled RNAs were extracted, separated by means of denaturing agarose gel electrophoresis and analyzed with the aid of a common Bio-Imager using a [^3H]-sensitive screen. For this purpose approx. 5×10^5 cells of the clones 9-13 and 8-1 were incubated at a time with 100 μCi [^3H] uridine for 16 hrs. in the absence (−) or presence (+) of 4 μg/ml of dactinomycin (Dact). Following this labeling reaction the total RNA was prepared and analyzed by means of formaldehyde-agarose gel electrophoresis. Only 1/10 of the total RNA is illustrated in the first two lanes. The radioactively labeled RNA was visualized using a BAS-2500 Bio-Imager (Fuji).

[1] = system: Huh 7 cell clones 9-13 and 8-1; test: [3H] uridine labeling of RNA in the presence of dactinomycin: cellular RNA synthesis; format: cell-based, human; conditions: 4 μg/ml dactinomycin, 16 hrs
Description: as §1

Compound: Cc1c2oc3c(C)ccc(C(=O)N[C@@H]4C(=O)N[C@H](C(C)C)C(=O)N5CCC[C@H]5C(=O)N(C)CC(=O)N(C)[C@@H](C(C)C)C(=O)O[C@@H]4C)c3nc-2c(C(=O)N[C@@H]2C(=O)N[C@H](C(C)C)C(=O)N3CCC[C@H]3C(=O)N(C)CC(=O)N(C)[C@@H](C(C)C)C(=O)O[C@@H]2C)c(N)c1=O [dactinomycin] (I: T[dV]P[Sar][NMeV] / II: T[dV]P[Sar][NMeV]; ester I:1-I:C, II:1-II:C; linker I:N-II:N via Actinocin(9to1))
- influence on the replication of the HCV RNA (HCV RNA): no influence
- synthesis of cellular RNA [1]: inhibited
